In US20160051541A1 (CHANRX CORPORATION, priority 2013, published 2016):
Like-named read-outs stand apart in the source and are kept apart here. Values belong to the molecule of their own block, whether it stands above or below them.

Key:
[1] = cited from earlier work
[2] = Example 1: plasma concentrations of vanoxerine and metabolites after a 300 mg dose in patients; assay type: in vivo, human; conditions: for concentration at 1 h / concentration at 3 h / concentration at 4 h / concentration at 6 h / concentration at 8 h / concentration at 12 h / concentration at 24 h / concentration at 0.5 h: human, plasma, 300 mg; for concentration at 0.5 h: .5 h
Method: Each patient gave blood samples before administration of their dose, and then again at nine further time points, 30 minutes after administration, 1, 2, 3, 4, 6, 8, 12, and 24 hours post administration.

[3] = Preliminary studies of daily use over 7, 10 and 14 days; assay type: in vivo; conditions: 75, 100, 125 and 150 mg a day over 7, 10 and 14 days
[4] = Recovery of radioactivity labeled vanoxerine in rats; assay type: in vivo
[5] = Example 2: daily doses of vanoxerine for 11 consecutive days in 12 subjects (PK, heart rate, blood pressure); assay type: in vivo, human; conditions: for PK Data (Mean +/- SD) T1/2 / PK Data (Mean +/- SD) CMax: 11 consecutive days
[6] = Example 4: vanoxerine daily for 7 days in four patients; assay type: in vivo, human; conditions: 50, 100 and 150 mg daily, all patients
[7] = Further studies of half-life and steady state on oral dosing; assay type: in vivo; conditions: in some cases
[8] = Example 3: vanoxerine daily for 14 days in fourteen healthy patients; assay type: in vivo, human
Method: A standardized meal was served 15 minutes prior to each dosing.

[9] = Pharmacokinetic tests in dogs; assay type: in vivo; conditions: dog, plasma; repetitive dosing in dogs
atrial fibrillation = conditions: canines, cited from earlier work
[10] = 10 patients, 1.00 = below LLOQ, read-out: High concentration group average
[11] = 15 patients, 1.00 = below LLOQ, read-out: Low concentration group average

- concentration at 1 h [2, 10]: 115 ng/mL
- concentration at 3 h [2, 10]: 156 ng/mL
- concentration at 4 h [2, 10]: 96.1 ng/mL
- concentration at 6 h [2, 10]: 57.1 ng/mL
- concentration at 8 h [2, 10]: 43.2 ng/mL
- concentration at 12 h [2, 10]: 29.3 ng/mL
- concentration at 24 h ([2]; 10 patients, read-out: High concentration group average): 3.07 ng/mL
- concentration at 0.5 h [2, 10]: 37.7 ng/mL
- concentration at 1 h [2, 11]: 40.1 ng/mL
- concentration at 3 h [2, 11]: 31.4 ng/mL
- concentration at 4 h [2, 11]: 24.4 ng/mL
- concentration at 6 h [2, 11]: 16.7 ng/mL
- concentration at 8 h [2, 11]: 11.8 ng/mL
- concentration at 12 h [2, 11]: 6.31 ng/mL
- concentration at 24 h [2, 11]: 5.01 ng/mL
- concentration at 0.5 h [2, 11]: 17 ng/mL
- plasma levels, highest at any time point ([2]; low concentration group): ~40 ng/mL
- recovery of administered radioactivity [4]: incomplete
- steady-state levels achieved [6]: within one week
- steady state achieved within ([7]; oral dosing): ≤ 3 days
- half-life ([7]; plasma, oral): ≤ 125 h
- steady state serum levels reported within ([8]; 25, 75 and 125 mg daily for 14 days): 9 to 11 days
- half-life [9]: ~66 h
SMILES: Fc1ccc(C(OCCN2CCN(CCCc3ccccc3)CC2)c2ccc(F)cc2)cc1 [Vanoxerine, 1-[2-[bis(4-fluorophenyl)methoxy]ethyl]-4-(3-phenylpropyl)piperazine]
- side-effects ([1]; daily repetitive dose of 50 mg): no side-effects should be expected
- side-effects ([1]; higher doses): some effects were seen with regard to concentration difficulties, increase systolic blood pressure, asthenia, and a feeling of drug influence
- heart rate and systolic blood pressure [3]: increased heart rate and systolic blood pressure
- plasma levels detectable ([5]; 25 mg daily): not detectable after 8 hours
- PK Data (Mean +/- SD) T1/2 ([5]; 50 mg daily, range 4.71-110.57): 49.39 +/− 26.18 hr (4.71-110.57)
- PK Data (Mean +/- SD) CMax ([5]; 75 mg daily): 27.4 ± 15.5 ng/mL
- PK Data (Mean +/- SD) T1/2 ([5]; 75 mg daily, range 10.26-116.67): 52.53 +/− 37.46 (10.26-116.67) hr
- PK Data (Mean +/- SD) CMax ([5]; 100 mg daily): 40.2 ± 26.6 ng/mL
- PK Data (Mean +/- SD) T1/2 ([5]; 100 mg daily, range 5.56-125.00): 15.38 +/− 43.55 (5.56-125.00) hr
- plasma levels detectable ([5]; 50, 75 and 100 mg doses): detectable at 24 hours
- steady state reached ([5]; 50, 75 and 100 mg doses daily): ≤ 8 days
- heart rate and systolic blood pressure ([5]; 75 and 100 mg doses daily): increased slightly in most subjects
- PK linearity ([5]; across 50, 75 and 100 mg doses): linear and the dose proportional
- half-life of the drug when daily doses are given ([5]; daily doses): increased half-life
- Tmax ([5]; human, plasma, printed under the 50 mg line, +- 0.5 hr (0.5-2.0)): 1.27 h
- adverse events ([8]; 25, 75 and 125 mg daily for 14 days, standardized meal before dosing): No significant adverse events
- serum levels, dose proportionality ([8]; higher doses compared with lower doses): disproportionately and statistically greater levels at higher doses

SMILES: COc1ccccc1OCC(O)CN1CCN(CC(=O)Nc2c(C)cccc2C)CC1 (stereo not drawn) [ranolazine]
- anti-AF effect (atrial fibrillation; clinically relevant conditions): suppress atrial fibrillation
- effects on ventricular myocardium (atrial fibrillation): minimal effects on ventricular myocardium
